Columns and labels:
[1] = biological target: T1, recombinant human TRα (Homo sapiens, UniProt P10827); experiment: biochemical; settings: TR[…] (IC50, nM), displacement of 125I-T3 (0.16 nM)
T1 sequence (P10827 190-410 isoform P10827-2): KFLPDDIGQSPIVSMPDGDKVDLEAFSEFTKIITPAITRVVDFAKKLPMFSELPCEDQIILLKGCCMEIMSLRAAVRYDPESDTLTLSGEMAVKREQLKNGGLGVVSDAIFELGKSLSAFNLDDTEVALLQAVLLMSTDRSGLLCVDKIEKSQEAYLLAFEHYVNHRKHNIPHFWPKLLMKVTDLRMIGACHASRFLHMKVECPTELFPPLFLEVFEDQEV
Text: (§1) Thyroid Hormone Receptor Binding Test
(§2) (1) Preparation of Fused Protein Having Ligand Binding Region of Thyroid Hormone Receptor
(§3) Human TRα and human TRβ ligand binding domains were expressed in Escherichia coli as a fused protein (recombinant human TRα or recombinant human TRβ) having TRα and TRβ ligand binding domains at a C-terminus of His-Patch Thioredoxin using the His-Patch Thioredoxin fusing protein expressing system (Invitrogen).
(§4) A nucleotide sequence of a region corresponding to the fused protein was confirmed by DNA sequence analysis.
(§5) Escherichia coli by which the fused protein had been subjected to expression inducement were collected by a centrifugation method, and ground using ultrasound to prepare a ground cell liquid containing the fused protein. The ground cell liquid was centrifuged at 15000 rpm for about 30 minutes, and a solution containing the fused protein from the supernatant using a nickel chelating column was obtained. An NAP-10 column was replaced with a binding solution (20 mM, Tris-HCl, 0.15 M NaCl, 8% Glycerol, 0.1% BSA, 1 mM EDTA, 10 mM 2-melcaptethanol). The resulting binding solution containing the fused protein was frozen and stored at −70° C. or lower.
(§6) (2) Binding Affinity for Thyroid Hormone Receptor
(§7) This binding solution (60 μL) was added to all wells of a 96-well plate (MILLIPORE MultiScreen-HV, Cat. No. MANVN4550, Lot. No. F4SN86613). […] 80 μL of SephadexG25 was added to each well of MultiScreen-HV (MILLIPORE, Cat. No. MANVN4550, Lot. No. F4SN86613), the binding solution was added to sufficiently swell, and this was centrifuged at 600×g for 1 minute to prepare a column of SephadexG25. […] Again, 25 μL untreated binding solution was overlaid on the SephadexG25 column, and this was immediately centrifuged at 600×g for 1 minute. […] As an amount of recombinant human TRα or recombinant human TRβ used in the present test, an amount by which proper radioactivity is obtained in a range where an addition amount of the receptor and an amount of the complex in the above test system, was used.
(§8) This was divided by the total complex amount to calculate a binding rate as the following equation:
(§9) Binding rate=remaining complex amount/total complex amount

[2] = biological target: T2, recombinant human TRβ (Homo sapiens, UniProt P10828); experiment: biochemical; settings: TR[…] (IC50, nM), displacement of 125I-T3 (0.16 nM)
T2 sequence (P10828 244-461): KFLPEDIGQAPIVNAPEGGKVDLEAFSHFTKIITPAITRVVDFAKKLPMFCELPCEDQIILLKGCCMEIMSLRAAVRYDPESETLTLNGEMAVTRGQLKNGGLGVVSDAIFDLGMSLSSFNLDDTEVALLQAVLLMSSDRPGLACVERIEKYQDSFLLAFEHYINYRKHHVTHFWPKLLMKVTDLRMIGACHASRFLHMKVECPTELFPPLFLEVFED
Text: as §1, §2, §3, §4, §5, §6, §7, §8, §9

Row | SMILES | IC50 [1] | IC50 [2]
1 | Cc1ccc(NC(=O)CCC(=O)O)c2cc(C)n(Cc3ccc(O)c(C(C)C)c3)c12 [Example 93] | 650 nM | 260 nM
2 | Cc1ccc(NC(=O)C(=O)O)c2cc(C)n(Cc3ccc(O)c(CCc4ccccc4)c3)c12 [Example 101] | 2200 nM | 390 nM
3 | Cc1ccc(NC(=O)CC(=O)O)c2cc(C)n(Cc3ccc(O)c(C(C)C)c3)c12 [Example 86] | 670 nM | 16 nM
4 | CCc1cc2c(NC(=O)Cc3nnn[nH]3)cccc2n1Cc1ccc(O)c(C(C)C)c1 [Example 41] | > 10000 nM | 650 nM
5 | CCC(C)c1cc(Cn2c(C)cc3c(NC(=O)C(=O)O)ccc(C)c32)ccc1O (stereo not drawn) [Example 122] | 24 nM | 2.6 nM
6 | Cc1ccc(NC(=O)Cc2nnn[nH]2)c2cc(C)n(Cc3ccc(O)c(C(C)C)c3)c12 [Example 43] | 450 nM | 8.5 nM
7 | Cc1ccc(NC(=O)CC(=O)O)c2cc(C)n(Cc3ccc(O)c(Cc4ccc(F)cc4)c3)c12 [Example 100] | 600 nM | 28 nM
8 | Cc1cc2c(NC(=O)CC(=O)O)cccc2n1Cc1ccc(O)c(C(C)C)c1 [Example 73] | 5100 nM | 210 nM
9 | CC(C)c1cc(Cn2ncc3c(NC(=O)C(=O)O)cccc32)ccc1O [Example 111] | > 10000 nM | 1400 nM
10 | CC(C)c1cc(Cn2ccc3c(NC(=O)CC(=O)O)cc(Br)cc32)ccc1O [Example 77] | > 10000 nM | 570 nM
11 | Cc1ccc(NC(=O)CC(=O)O)c2cc(C)n(Cc3ccc(O)c(C(O)c4ccc(F)cc4)c3)c12 (single isomer, unassigned; (-)) [Example 131, (−)-N-(1-{3-[(4-fluorophenyl)hydroxymethyl]-4-hydroxybenzyl}-2,7-dimethyl-1H-indol-4-yl)malonamic acid] | 99 nM | 7.1 nM
12 | Cc1ccc(NC(=O)CC(=O)O)c2cc(C)n(Cc3ccc(O)c(C(O)c4ccc(F)cc4)c3)c12 (stereo not drawn) [Example 129, N-(1-{3-[(4-fluorophenyl)hydroxymethyl]-4-hydroxybenzyl}-2,7-dimethyl-1H-indol-4-yl)malonamic acid] | 260 nM | 7.5 nM
13 | Cc1ccc(NC(=O)CC(=O)O)c2cc(C)n(Cc3ccc(O)c(Br)c3)c12 [Example 65] | > 10000 nM | 470 nM
14 | CCCc1cc(Cn2c(C)cc3c(NC(=O)CC(=O)O)ccc(C)c32)ccc1O [Example 117] | 640 nM | 36 nM
15 | CCOC(=O)CC(=O)Nc1ccc(C)c2c1cc(C)n2Cc1ccc(O)c(C(O)c2ccc(F)cc2)c1 (stereo not drawn) [Example 57, Ethyl N-(1-{3-[(4-fluorophenyl)hydroxymethyl]-4-hydroxybenzyl}-2,7-dimethyl-1H-indol-4-yl)malonamate] | 3800 nM | 24 nM
16 | Cc1ccc(NC(=O)C(=O)O)c2ccn(Cc3ccc(O)c(C(C)C)c3)c12 [Example 79] | 5200 nM | 130 nM
17 | CCc1cc2c(NC(=O)C(=O)O)cccc2n1Cc1ccc(O)c(C(C)C)c1 [Example 118] | 280 nM | 91 nM
18 | CCOC(=O)C(=O)Nc1ccc(C)c2c1cc(C)n2Cc1ccc(O)c(C(C)C)c1 [Example 21] | 37 nM | 6.3 nM
19 | CCc1cc2c(NC(=O)CC(=O)O)cccc2n1Cc1ccc(O)c(C(C)C)c1 [Example 75] | > 10000 nM | 550 nM
20 | Cc1ccc(NC(=O)C(=O)O)c2cc(C)n(Cc3ccc(O)c(C(F)(F)F)c3)c12 [Example 114] | 180 nM | 49 nM
21 | CCOc1cc(Cn2c(C)cc3c(NC(=O)C(=O)O)ccc(C)c32)ccc1O [Example 126] | 1900 nM | 320 nM
22 | Cc1cc(NC(=O)C(=O)O)cc2ccn(Cc3ccc(O)c(C(C)C)c3)c12 [Example 108] | 190 nM | 54 nM
23 | CCOC(=O)C(=O)Nc1cccc2c1cc(C)n2Cc1ccc(O)c(C(C)C)c1 [Example 8] | 370 nM | 72 nM

Row | SMILES | IC50 [1] | IC50 [2]
24 | Cc1ccc(NC(=O)C(C)C(=O)O)c2cc(C)n(Cc3ccc(O)c(C(C)C)c3)c12 (stereo not drawn) [Example 89] | 870 nM | 120 nM
25 | CCOC(=O)C(=O)Nc1ccc(C)c2c1ccn2Cc1ccc(O)c(C(C)C)c1 [Example 15] | 490 nM | 60 nM
26 | Cc1cc2c(NC(=O)C(=O)O)cccc2n1Cc1ccc(O)c(C(C)C)c1 [Example 72] | 230 nM | 40 nM
27 | CC(C)c1cc(Cn2ccc3cc(NC(=O)C(=O)O)ccc32)ccc1O [Example 105] | 970 nM | 260 nM
28 | CCOC(=O)CC(=O)Nc1ccc(C)c2c1cc(C(F)(F)F)n2Cc1ccc(O)c(C(C)C)c1 [Example 26] | 3400 nM | 310 nM
29 | CCC(C)c1cc(Cn2c(C)cc3c(NC(=O)CC(=O)O)ccc(C)c32)ccc1O (stereo not drawn) [Example 123] | 170 nM | 9.4 nM
30 | Cc1ccc(NC(=O)CC(=O)O)c2cc(C)n(Cc3ccc(O)c4ccccc34)c12 [Example 115] | 3600 nM | 130 nM
31 | Cc1cc2c(OCC(=O)O)cccc2n1Cc1ccc(O)c(C(C)C)c1 [Example 74] | 2700 nM | 200 nM
32 | CC(C)c1cc(Cn2ccc3c(NC(=O)C(=O)O)cc(Br)cc32)ccc1O [Example 120] | 380 nM | 63 nM
33 | CC(C)c1cc(Cn2c(C(F)(F)F)cc3c(NC(=O)C(=O)O)cccc32)ccc1O [Example 119] | 57 nM | 15 nM
34 | CC(C)c1cc(Cc2c[nH]c3c(NC(=O)CC(=O)O)cccc23)ccc1O [Example 113] | > 10000 nM | 320 nM
35 | Cc1ccc(NC(=O)CC(=O)O)c2cc(C(F)(F)F)n(Cc3ccc(O)c(C(C)C)c3)c12 [Example 95] | 98 nM | 5 nM
36 | Cc1cc(NC(=O)CC(=O)O)cc2ccn(Cc3ccc(O)c(C(C)C)c3)c12 [Example 109] | > 10000 nM | 600 nM
37 | CC(C)c1cc(Cn2c(C(F)(F)F)cc3c(NC(=O)CC(=O)O)cccc32)ccc1O [Example 76] | 610 nM | 67 nM
38 | CC(C)c1cc(Cn2ccc3c(NC(=O)C(=O)O)cccc32)ccc1O [Example 63, N-[1-(4-hydroxy-3-isopropylbenzyl)-1H-indol-4-yl]oxamic acid] | 1200 nM | 170 nM
39 | Cc1cc(Cn2ccc3c(NC(=O)C(=O)O)ccc(C)c32)cc(C)c1O [Example 103] | 3200 nM | 860 nM
40 | CC(C)c1cc(Cn2ccc3c(NC(=O)CC(=O)O)cccc32)ccc1O [Example 69] | > 10000 nM | 430 nM
41 | Cc1ccc(NC(=O)C(=O)O)c2cc(C)n(Cc3ccc(O)c(Cc4ccc(F)cc4)c3)c12 [Example 125] | 66 nM | 8.7 nM
42 | CCOC(=O)C(=O)Nc1cccc2c1ccn2Cc1ccc(O)c(C(C)C)c1 [Example 1, Ethyl N-[1-(4-hydroxy-3-isopropylbenzyl)-1H-indol-4-yl]oxamate] | 1500 nM | 220 nM
43 | Cc1ccc(NC(=O)C(=O)O)c2cc(C)n(Cc3ccc(O)c(C(C)C)c3)c12 [Example 85] | 24 nM | 3.1 nM
44 | CCOC(=O)C(=O)Nc1cccc2c1c(C)c(C)n2Cc1ccc(O)c(C(C)C)c1 [Example 19] | 280 nM | 56 nM
45 | Cc1ccc(NCCC(=O)O)c2ccn(Cc3ccc(O)c(C(C)C)c3)c12 [Example 82] | 1600 nM | 1100 nM
